Biological target: T1, β-catenin (Homo sapiens, UniProt P35222)
T1 sequence (P35222 2-781): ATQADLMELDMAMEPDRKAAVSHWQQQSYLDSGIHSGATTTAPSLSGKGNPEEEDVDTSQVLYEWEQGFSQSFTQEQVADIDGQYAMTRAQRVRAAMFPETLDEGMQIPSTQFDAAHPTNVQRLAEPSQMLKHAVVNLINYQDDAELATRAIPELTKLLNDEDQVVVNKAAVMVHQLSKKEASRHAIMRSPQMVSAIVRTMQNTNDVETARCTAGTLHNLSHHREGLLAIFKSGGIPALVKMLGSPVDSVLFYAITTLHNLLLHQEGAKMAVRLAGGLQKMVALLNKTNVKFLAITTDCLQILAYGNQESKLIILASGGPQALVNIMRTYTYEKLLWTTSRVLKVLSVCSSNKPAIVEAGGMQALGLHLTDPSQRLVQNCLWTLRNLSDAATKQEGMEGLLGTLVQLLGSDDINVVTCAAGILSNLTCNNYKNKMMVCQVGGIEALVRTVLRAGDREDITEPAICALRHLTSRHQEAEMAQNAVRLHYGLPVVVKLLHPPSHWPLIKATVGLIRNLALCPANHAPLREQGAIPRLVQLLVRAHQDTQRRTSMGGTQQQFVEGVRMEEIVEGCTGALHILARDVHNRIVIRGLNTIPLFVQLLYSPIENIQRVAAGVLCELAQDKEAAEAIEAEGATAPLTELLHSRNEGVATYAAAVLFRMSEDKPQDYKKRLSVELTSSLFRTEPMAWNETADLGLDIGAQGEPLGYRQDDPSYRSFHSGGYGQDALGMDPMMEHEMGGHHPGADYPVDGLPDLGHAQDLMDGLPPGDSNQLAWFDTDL
Assay: Biolayer interferometry
Assay type: binding

Cc1cccc2c3c(ccc12)C1=C(C(=O)C3=O)[C@@H](C)CO1 [DHTS, 15,16-Dihydrotanshinone I]
Kd: 14.6 µM

Reference: PMC12639897 (Journal of Translational Medicine, 2025)
